BindingDB's records for doi:10.1021/acs.jnatprod.8b00318 (Indian Institute of Integrative Medicine (Csir), 2019)

Legend:
[1] = target: Prostaglandin G/H synthase 1 (Ovis aries) (UniProt P05979); experiment: Inhibition of ovine COX1 assessed as reduction in prostaglandin E2 production incubated for 10 mins before arachidonic acid addition and measured after 25 mins by LC-MS/MS analysis
[2] = target: Prostaglandin G/H synthase 2 (Homo sapiens) (UniProt P35354); experiment: Inhibition of COX2 (unknown origin) assessed as reduction in prostaglandin E2 production incubated for 10 mins before arachidonic acid addition and measured after 25 mins by LC-MS/MS analysis
Sequence of Prostaglandin G/H synthase 2 (Homo sapiens) (P35354 whole entry, looked up): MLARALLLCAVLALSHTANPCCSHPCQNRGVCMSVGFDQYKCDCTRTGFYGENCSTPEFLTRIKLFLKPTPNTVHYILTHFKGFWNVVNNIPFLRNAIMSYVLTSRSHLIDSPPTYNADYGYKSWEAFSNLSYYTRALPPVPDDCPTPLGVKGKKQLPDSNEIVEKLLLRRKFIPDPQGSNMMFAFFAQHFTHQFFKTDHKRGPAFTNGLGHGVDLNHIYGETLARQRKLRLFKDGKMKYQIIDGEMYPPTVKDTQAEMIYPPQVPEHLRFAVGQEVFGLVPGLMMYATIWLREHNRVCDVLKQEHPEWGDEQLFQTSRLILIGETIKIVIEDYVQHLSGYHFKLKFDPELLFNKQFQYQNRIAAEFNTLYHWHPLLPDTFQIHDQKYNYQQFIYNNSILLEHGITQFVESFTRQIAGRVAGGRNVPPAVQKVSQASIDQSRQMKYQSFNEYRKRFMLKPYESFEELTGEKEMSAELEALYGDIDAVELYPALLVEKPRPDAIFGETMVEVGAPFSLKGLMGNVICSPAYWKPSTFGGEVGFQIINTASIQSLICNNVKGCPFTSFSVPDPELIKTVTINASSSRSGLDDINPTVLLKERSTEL

IC50 [1]: 31 µM
IC50 [2]: 66.1 µM
SMILES: COC(=O)[C@@H](C)c1ccc2c(C)cc(O)c(C)c2c1
